Data published in patent publication US10227357B2, “Compounds and methods for kinase modulation, and indications therefor” (Plexxikon Inc., priority 2012, dated 2019).

Tests used:
c-kit mutant D816V = target: T1, c-kit mutant D816V (Homo sapiens, UniProt P10721, D816V/DEL694-753); test: c-Kit mutant D816V biochemical assay, AlphaScreen; settings: c-kit D816V biochemical inhibitory activity; read-out: Biochemical activity (IC50 μM) Kit D816V
T1 construct: residues 551-934, kinase insertion domain residues 694-753 deleted; 6x-histidine (N); made in house; host or cells: E. coli Arctic Express (DE3) RIL (Stratagene)
T1 sequence (P10721 with tags, fused parts or gaps DEL694-753/D816V): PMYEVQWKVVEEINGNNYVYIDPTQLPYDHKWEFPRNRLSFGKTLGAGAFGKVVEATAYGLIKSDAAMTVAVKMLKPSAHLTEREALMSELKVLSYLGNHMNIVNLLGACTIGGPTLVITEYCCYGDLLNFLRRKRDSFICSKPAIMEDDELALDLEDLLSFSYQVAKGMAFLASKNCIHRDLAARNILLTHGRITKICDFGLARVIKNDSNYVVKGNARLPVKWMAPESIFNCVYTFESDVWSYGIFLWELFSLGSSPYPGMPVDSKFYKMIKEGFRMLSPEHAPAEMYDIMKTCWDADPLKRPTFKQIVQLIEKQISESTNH
Summary of the method: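 Purified His-tagged c-Kit D816V (E. coli-expressed) assayed in 25 mM HEPES pH 7.2 with Mg/Mn, 5% DMSO and 10 μM ATP, 30 min at room temperature, 8-point 1:3 dilutions. Phosphorylation detected by AlphaScreen with streptavidin donor and PY20 acceptor beads; IC50 from signal versus concentration.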

c-kit kinase = target: T2, c-kit kinase (Homo sapiens, UniProt P10721); test: c-Kit biochemical assay, AlphaScreen, 10 μM ATP; settings: c-kit biochemical inhibitory activity; read-out: Biochemical activity (IC50 μM) Kit
T2 construct: The c-kit (or kinase domain thereof) is an active kinase in AlphaScreen; poly-Histidine tag (in-house protein only) (cleaved yes); host or cells: E. coli BL21(DE3)RIL, co-expressed with PTP1B
T2 sequence (P10721 26-976): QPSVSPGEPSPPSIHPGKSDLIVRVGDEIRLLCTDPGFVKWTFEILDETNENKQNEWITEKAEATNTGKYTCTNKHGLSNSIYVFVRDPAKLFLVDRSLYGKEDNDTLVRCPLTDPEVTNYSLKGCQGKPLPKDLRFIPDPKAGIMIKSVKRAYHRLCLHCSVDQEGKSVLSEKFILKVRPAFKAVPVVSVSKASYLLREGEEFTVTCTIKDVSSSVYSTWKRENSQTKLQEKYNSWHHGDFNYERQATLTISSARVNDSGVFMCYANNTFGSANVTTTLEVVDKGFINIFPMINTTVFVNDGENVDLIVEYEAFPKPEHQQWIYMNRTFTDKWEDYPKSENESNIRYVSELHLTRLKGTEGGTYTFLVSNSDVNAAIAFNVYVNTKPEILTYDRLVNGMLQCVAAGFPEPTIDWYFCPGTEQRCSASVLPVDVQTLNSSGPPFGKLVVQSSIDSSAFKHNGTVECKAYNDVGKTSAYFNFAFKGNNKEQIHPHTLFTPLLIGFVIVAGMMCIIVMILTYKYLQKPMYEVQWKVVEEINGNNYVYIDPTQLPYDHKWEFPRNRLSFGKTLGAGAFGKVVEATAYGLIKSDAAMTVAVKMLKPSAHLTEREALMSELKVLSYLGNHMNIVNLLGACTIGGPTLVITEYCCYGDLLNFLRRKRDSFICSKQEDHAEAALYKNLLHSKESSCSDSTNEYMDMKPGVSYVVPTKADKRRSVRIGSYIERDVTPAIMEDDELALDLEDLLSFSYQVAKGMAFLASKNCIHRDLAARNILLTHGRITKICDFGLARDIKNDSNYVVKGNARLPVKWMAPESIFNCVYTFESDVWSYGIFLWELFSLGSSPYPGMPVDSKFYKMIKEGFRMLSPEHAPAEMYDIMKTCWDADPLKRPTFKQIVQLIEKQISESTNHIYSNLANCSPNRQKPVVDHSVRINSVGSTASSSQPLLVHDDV
Description: IC50 values are determined with respect to inhibition of c-Kit kinase activity, where inhibition of phosphorylation of a peptide substrate is measured as a function of compound concentration. Compounds to be tested were dissolved in DMSO to a concentration of 20 mM. These were diluted 30 μl into 120 μl of DMSO (4 mM) and 1 μl was added to an assay plate. These were then serially diluted 1:3 (50 μl to 100 μl DMSO) for a total of 8 points. Plates were prepared such that each kinase reaction is 20 μl in 1× kinase buffer (50 mM HEPES, pH 7.2, 5 mM MgCl2, 5 mM MnCl2, 0.01% NP-40, 0.2% BSA), 5% DMSO and 10 μM ATP. […] C-kit kinase was at 0.1 ng per sample. After incubation of the kinase reaction for 1 hour at room temperature, 5 μl of donor beads (Streptavidin coated beads (Perkin Elmer Life Science) final concentration 1 μg/ml) in stop buffer (50 mM EDTA in 1× kinase buffer) was added, the sample was mixed and incubated for 20 minutes at room temperature before adding 5 μl of acceptor beads (PY20 coated beads (Perkin Elmer Life Science) final concentration 1 μg/ml) in stop buffer. The samples were incubated for 60 minutes at room temperature and the signal per well was read on AlphaQuest reader. […] The signal vs. compound concentration was used to determine the IC50.
Complementary DNA cloned from various human tissues were purchased from Invitrogen, and these were used as substrates in the PCR reactions. Specific custom synthetic oligonucleotide primers were designed to initiate the PCR product, and also to provide the appropriate restriction enzyme cleavage sites for ligation with the plasmids. The entire sequence encoding the enzyme was made through a gene synthesis procedure, using custom synthetic oligonucleotides covering the entire coding sequence (Invitrogen, see below).
The plasmid used for ligation with the kinase-encoding inserts was derivative of pET (Novagen) for expression using E. coli. The Kit kinase was engineered to include a Histidine tag for purification using metal affinity chromatography. The kinase-encoding plasmid was engineered as bicistronic mRNA to co-express a second protein that modifies the kinase protein during its expression in the host cell. Protein tyrosine phosphatase 1B (PTP), was co-expressed for dephosphorylation of the phospho-Tyrosines.
For protein expression, the plasmid containing the Kit gene was transformed into E. coli strains BL21(DE3)RIL and transformants selected for growth on LB agar plates containing appropriate antibiotics. Single colonies were grown overnight at 37° C. in 200 ml TB (Terrific broth) media. 16×1 L of fresh TB media in 2.8 L flasks were inoculated with 10 ml of overnight culture and grown with constant shaking at 37° C. Once cultures reached an absorbance of 1.0 at 600 nm, IPTG was added and cultures were allowed to grow for a further 12 to 18 hrs at temperatures ranging from 12-30° C. Cells were harvested by centrifugation and pellets frozen at […] until ready for lysis.
For protein Purification; frozen E. coli cell pellets were resuspended in lysis buffer and lysed using standard mechanical methods. Protein was purified via poly-Histidine tags using immobilized metal affinity purification IMAC. The Kit kinase was purified using a 3 step purification process utilizing; IMAC, size exclusion chromatography and ion exchange chromatography. The poly-Histidine tag was removed using Thrombin (Calbiochem).

| SMILES | IC50 (c-kit mutant D816V) [µM] | IC50 (c-kit kinase) [µM] |
| --- | --- | --- |
| Cc1ccc(-c2cc3c(N4CCN(C(=O)N[C@@H](C)c5cccc(Cl)c5)C(C)(C)C4)ncnc3[nH]2)cn1 [P-0001, N-[(1S)-1-(3-chlorophenyl)ethyl]-2,2-dimethyl-4-[6-(6-methyl-3-pyridyl)-7H-pyrrolo[2,3-d]pyrimidin-4-yl]piperazine-1-carboxamide] | 0.0001 to 1 | 1 to 10 |
| Cc1ccc(-c2cc3c(N4CCN(C(=O)N[C@@H](C)c5cccc(OC(F)F)c5)C(C)(C)C4)ncnc3[nH]2)cn1 [P-0002, N-[(1S)-1-[3-(difluoromethoxy)phenyl]ethyl]-2,2-dimethyl-4-[6-(6-methyl-3-pyridyl)-7H-pyrrolo[2,3-d]pyrimidin-4-yl]piperazine-1-carboxamide] | 0.0001 to 1 | 1 to 10 |
| COc1cccc([C@H](C)NC(=O)N2CCN(c3ncnc4[nH]c(C)cc34)CC2)c1 [P-0003, N-[(1S)-1-(3-methoxyphenyl)ethyl]-4-(6-methyl-7H-pyrrolo[2,3-d]pyrimidin-4-yl)piperazine-1-carboxamide] | 0.0001 to 1 | 10 to 200 |
| COc1cc([C@H](C)NC(=O)N2CCN(c3ncnc4[nH]c(-c5ccc(F)cc5)cc34)C[C@H]2C)ccc1F [P-0004, (2R)-N-[(1S)-1-(4-fluoro-3-methoxy-phenyl)ethyl]-4-[6-(4-fluorophenyl)-7H-pyrrolo[2,3-d]pyrimidin-4-yl]-2-methyl-piperazine-1-carboxamide] | 0.0001 to 1 | 10 to 200 |
| C[C@H](NC(=O)N1CCN(c2ncnc3[nH]c(-c4ccc(F)cc4)cc23)CC1(C)C)c1cccc(F)c1 [P-0005, N-[(1S)-1-(3-fluorophenyl)ethyl]-4-[6-(4-fluorophenyl)-7H-pyrrolo[2,3-d]pyrimidin-4-yl]-2,2-dimethyl-piperazine-1-carboxamide] | 0.0001 to 1 | 1 to 10 |
| C[C@H](NC(=O)N1CCN(c2ncnc3[nH]c(-c4ccc(F)cc4)cc23)CC1(C)C)c1cccc(OC(F)F)c1 [P-0006, N-[(1S)-1-[3-(difluoromethoxy)phenyl]ethyl]-4-[6-(4-fluorophenyl)-7H-pyrrolo[2,3-d]pyrimidin-4-yl]-2,2-dimethyl-piperazine-1-carboxamide] | 0.0001 to 1 | 1 to 10 |
| O=C(NC1CCN(c2ncnc3[nH]ccc23)CC1)C1CCCC1 [P-0529, N-[1-(7H-pyrrolo[2,3-d]pyrimidin-4-yl)-4-piperidyl]cyclopentanecarboxamide] | – | 10 to 200 |
| CCc1ccc(C(=O)NC2CCN(c3ncnc4[nH]ccc34)CC2)cc1 [P-0530, 4-ethyl-N-[1-(7H-pyrrolo[2,3-d]pyrimidin-4-yl)-4-piperidyl]benzamide] | – | 10 to 200 |
| O=C(NC1CCN(c2ncnc3[nH]ccc23)CC1)c1ccccc1 [P-0531, N-[1-(7H-pyrrolo[2,3-d]pyrimidin-4-yl)-4-piperidyl]benzamide] | – | 10 to 200 |
| CCCS(=O)(=O)NC1CCN(c2ncnc3[nH]ccc23)CC1 [P-0532, N-[1-(7H-pyrrolo[2,3-d]pyrimidin-4-yl)-4-piperidyl]propane-1-sulfonamide] | – | 10 to 200 |
| O=S(=O)(NC1CCN(c2ncnc3[nH]ccc23)CC1)c1ccccc1 [P-0533, N-[1-(7H-pyrrolo[2,3-d]pyrimidin-4-yl)-4-piperidyl]benzenesulfonamide] | – | 10 to 200 |
| CCOc1ccc(NC(=O)NC2CCN(c3ncnc4[nH]ccc34)CC2)cc1 [P-0534, 1-(4-ethoxyphenyl)-3-[1-(7H-pyrrolo[2,3-d]pyrimidin-4-yl)-4-piperidyl]urea] | – | 10 to 200 |
| CCc1ccc(NC(=O)NC2CCN(c3ncnc4[nH]ccc34)CC2)cc1 [P-0535, 1-(4-ethylphenyl)-3-[1-(7H-pyrrolo[2,3-d]pyrimidin-4-yl)-4-piperidyl]urea] | – | 1 to 10 |
| CCCNC(=O)NC1CCN(c2ncnc3[nH]ccc23)CC1 [P-0536, 1-propyl-3-[1-(7H-pyrrolo[2,3-d]pyrimidin-4-yl)-4-piperidyl]urea] | – | 10 to 200 |
| O=C(NC1CCCCC1)NC1CCN(c2ncnc3[nH]ccc23)CC1 [P-0537, 1-cyclohexyl-3-[1-(7H-pyrrolo[2,3-d]pyrimidin-4-yl)-4-piperidyl]urea] | – | 10 to 200 |
| O=C(Nc1ccccc1)NC1CCN(c2ncnc3[nH]ccc23)CC1 [P-0538, 1-phenyl-3-[1-(7H-pyrrolo[2,3-d]pyrimidin-4-yl)-4-piperidyl]urea] | – | 10 to 200 |
| Cc1ccc(-c2cc3c(C4=CCC(NS(=O)(=O)c5ccc(OC(F)(F)F)cc5)CC4)ncnc3[nH]2)cn1 (stereo not drawn) [P-0544, N-[4-[6-(6-methyl-3-pyridyl)-7H-pyrrolo[2,3-d]pyrimidin-4-yl]cyclohex-3-en-1-yl]-4-(trifluoromethoxy)benzenesulfonamide] | – | 10 to 200 |
| Cn1cc(-c2cc3c(C4=CCC(NS(=O)(=O)c5ccc(OC(F)(F)F)cc5)CC4)ncnc3[nH]2)cn1 (stereo not drawn) [P-0545, N-[4-[6-(1-methylpyrazol-4-yl)-7H-pyrrolo[2,3-d]pyrimidin-4-yl]cyclohex-3-en-1-yl]-4-(trifluoromethoxy)benzenesulfonamide] | – | 1 to 10 |
| COc1cccc([C@H](C)NC(=O)N2CCN(c3ncnc4cc(N5CCOCC5)sc34)CC2)c1 [P-0548, N-[(1S)-1-(3-methoxyphenyl)ethyl]-4-(6-morpholinothieno[3,2-d]pyrimidin-4-yl)piperazine-1-carboxamide] | – | 1 to 10 |
| C[C@H](NC(=O)N1CC2CCC1CN2c1ncnc2cc(-c3ccc(F)cc3)sc12)c1cccc(Cl)c1 (stereo partly drawn) [P-0565, N-[(1S)-1-(3-chlorophenyl)ethyl]-5-[6-(4-fluorophenyl)thieno[3,2-d]pyrimidin-4-yl]-2,5-diazabicyclo[2.2.2]octane-2-carboxamide] | – | 1 to 10 |
| Cc1ccc(S(=O)(=O)Nc2ccc(-c3cc4ncnc(N5CCN(C(=O)Nc6ccccc6)CC5)c4s3)cc2)cc1 [P-0625, N-phenyl-4-[6-[4-(p-tolylsulfonylamino)phenyl]thieno[3,2-d]pyrimidin-4-yl]piperazine-1-carboxamide] | – | 10 to 200 |
| Cn1cc(-c2cc3ncnc(N4CCN(C(=O)Nc5ccccc5)CC4)c3s2)cn1 [P-0627, 4-[6-(1-methylpyrazol-4-yl)thieno[3,2-d]pyrimidin-4-yl]-N-phenyl-piperazine-1-carboxamide] | – | 1 to 10 |
| Cc1ccc(S(=O)(=O)Nc2ccc(-c3ncnc4cc(-c5cnn(C)c5)sc34)cc2)cc1 [P-0628, 4-methyl-N-[4-[6-(1-methylpyrazol-4-yl)thieno[3,2-d]pyrimidin-4-yl]phenyl]benzenesulfonamide] | – | 0.0001 to 1 |
| CC(C)(C)c1cc2ncnc(N3CCN(C(=O)NCc4ccc(F)cc4)CC3)c2s1 [P-0637, 4-(6-tert-butylthieno[3,2-d]pyrimidin-4-yl)-N-[(4-fluorophenyl)methyl]piperazine-1-carboxamide] | – | 10 to 200 |
| CC(C)(C)c1cc2ncnc(N3CCN(C(=O)Nc4ccc(F)cc4)CC3)c2s1 [P-0639, 4-(6-tert-butylthieno[3,2-d]pyrimidin-4-yl)-N-(4-fluorophenyl)piperazine-1-carboxamide] | – | 10 to 200 |
| O=S(=O)(NC1CCN(c2ncnc3[nH]c(-c4cc(Cl)cs4)cc23)CC1)c1ccc(OC(F)(F)F)cc1 [P-0670, N-[1-[6-(4-chloro-2-thienyl)-7H-pyrrolo[2,3-d]pyrimidin-4-yl]-4-piperidyl]-4-(trifluoromethoxy)benzenesulfonamide] | – | 10 to 200 |
| C[C@H](NC(=O)N1CCN(c2ncnc3ccsc23)CC1(C)C)c1cccc(Cl)c1 [P-0682, N-[(1S)-1-(3-chlorophenyl)ethyl]-2,2-dimethyl-4-thieno[3,2-d]pyrimidin-4-yl-piperazine-1-carboxamide] | – | 10 to 200 |
